pEC50: −log10 of the molar value. No end group written: not given here.
Tests used:
Format in all cases: cell-based
CaR2 = target: T1, CaR2 (Homo sapiens, UniProt Q5T6X5); assay: FLIPR assay of intracellular Ca^++ in HEK293 clone HEK-167B12-2.1 stably expressing CaR2; conditions: for effect on OC/Ca^++ activation of CaR2: OC and Ca^2+ pre-incubated with / in the presence of lead ion; for FLIPR response (change of intracellular Ca^++ levels): initial ligand testing in the transfected cells
T1 construct: expressed in transfected cells
T1 sequence (Q5T6X5 19-926): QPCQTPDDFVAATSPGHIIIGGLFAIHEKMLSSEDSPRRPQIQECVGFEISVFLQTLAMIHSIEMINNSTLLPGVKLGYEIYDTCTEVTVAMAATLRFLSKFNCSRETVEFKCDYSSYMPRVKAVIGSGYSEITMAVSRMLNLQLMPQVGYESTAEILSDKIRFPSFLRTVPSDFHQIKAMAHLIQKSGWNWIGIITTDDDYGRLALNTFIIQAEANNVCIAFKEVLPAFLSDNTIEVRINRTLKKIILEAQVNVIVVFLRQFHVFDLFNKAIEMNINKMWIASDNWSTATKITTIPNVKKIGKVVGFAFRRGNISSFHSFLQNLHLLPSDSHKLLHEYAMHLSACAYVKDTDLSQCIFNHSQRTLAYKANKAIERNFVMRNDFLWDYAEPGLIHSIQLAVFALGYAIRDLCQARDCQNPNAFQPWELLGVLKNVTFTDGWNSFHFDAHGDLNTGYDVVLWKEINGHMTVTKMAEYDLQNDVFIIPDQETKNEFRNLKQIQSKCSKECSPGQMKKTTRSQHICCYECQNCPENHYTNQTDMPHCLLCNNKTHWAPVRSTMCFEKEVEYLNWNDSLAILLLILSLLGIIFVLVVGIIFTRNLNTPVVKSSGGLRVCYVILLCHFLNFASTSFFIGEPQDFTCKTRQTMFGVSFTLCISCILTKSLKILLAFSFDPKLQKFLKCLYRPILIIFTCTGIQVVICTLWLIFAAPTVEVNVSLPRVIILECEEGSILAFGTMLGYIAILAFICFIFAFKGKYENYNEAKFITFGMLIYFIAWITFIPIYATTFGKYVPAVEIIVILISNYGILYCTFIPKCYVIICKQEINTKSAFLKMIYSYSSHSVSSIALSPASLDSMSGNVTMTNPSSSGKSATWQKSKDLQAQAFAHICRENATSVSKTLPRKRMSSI
Description: To facilitate pharmacological experimentation, CaR2 cDNA was cloned into the mammalian expression vector pcDNA 3.1 (+) Neo with or without a COOH-terminal FLAG epitope. The transgene was introduced into the HEK293 cell line and stable transfectants were identified. These clones were analyzed for CaR2 expression by qPCR and Western blotting to identify those clones that were suitable for ligand identification. The clone HEK-167B12-2.1 was chosen for further experimentation.
Based on the homology to the characterized goldfish odorant receptor 5.24, initial studies investigated the ability of 18 naturally occurring amino acids to trigger changes of intracellular Ca^++ levels in the transfected cells, as measured with a fluorescent imaging plate reader (FLIPR).
(§1) Intracellular Ca^++ was measured using a fluorometric imaging plate reader (FLIPR) [Molecular Devices]. Cells were seeded at a density of 1×10^5/well (96-well plate) or 1×10^4/well (384-well plate) in collagen coated plates and incubated overnight at 36.9° C. with 5% CO2. Medium was aspirated from the plates and replaced with equal volumes of a no wash calcium dye (Molecular Devices) and modified Hank's buffered saline solution [Ca^2+-free, Mg^2+-free] (140 mM NaCl, 5.4 mM KCl, 0.64 mM KH2PO4, 3 mM NaHCO3, 5.5 mM C6H12O6, 20 mM HEPES, 2.5 mM Caprylic acid (or 2.5 mM probenecid)). The plates were incubated for 1 hour at 36.9° C. with 5% CO2. FLIPR was used to measure changes in intracellular calcium as relative fluorescence upon activation by ligand.

parental HEK293 cells = assay: FLIPR assay of intracellular Ca^++ in parental HEK293 cells that do not express CaR2
Description: as §1
(§2) Also, the apical side of cells lining tubules in Henle's loop in kidney and in epithelial cells lining prostate ducts are microenvironments where CaR2 would encounter higher than standard extracellular Ca^++.

CaR = target: T2, CaR (Homo sapiens, UniProt P41180); assay: Ca^++ response of HEK 293 cells that express the previously characterized CaR
T2 construct: expressed in transfected cells; host or cells: HEK 293
T2 sequence (P41180 20-1078): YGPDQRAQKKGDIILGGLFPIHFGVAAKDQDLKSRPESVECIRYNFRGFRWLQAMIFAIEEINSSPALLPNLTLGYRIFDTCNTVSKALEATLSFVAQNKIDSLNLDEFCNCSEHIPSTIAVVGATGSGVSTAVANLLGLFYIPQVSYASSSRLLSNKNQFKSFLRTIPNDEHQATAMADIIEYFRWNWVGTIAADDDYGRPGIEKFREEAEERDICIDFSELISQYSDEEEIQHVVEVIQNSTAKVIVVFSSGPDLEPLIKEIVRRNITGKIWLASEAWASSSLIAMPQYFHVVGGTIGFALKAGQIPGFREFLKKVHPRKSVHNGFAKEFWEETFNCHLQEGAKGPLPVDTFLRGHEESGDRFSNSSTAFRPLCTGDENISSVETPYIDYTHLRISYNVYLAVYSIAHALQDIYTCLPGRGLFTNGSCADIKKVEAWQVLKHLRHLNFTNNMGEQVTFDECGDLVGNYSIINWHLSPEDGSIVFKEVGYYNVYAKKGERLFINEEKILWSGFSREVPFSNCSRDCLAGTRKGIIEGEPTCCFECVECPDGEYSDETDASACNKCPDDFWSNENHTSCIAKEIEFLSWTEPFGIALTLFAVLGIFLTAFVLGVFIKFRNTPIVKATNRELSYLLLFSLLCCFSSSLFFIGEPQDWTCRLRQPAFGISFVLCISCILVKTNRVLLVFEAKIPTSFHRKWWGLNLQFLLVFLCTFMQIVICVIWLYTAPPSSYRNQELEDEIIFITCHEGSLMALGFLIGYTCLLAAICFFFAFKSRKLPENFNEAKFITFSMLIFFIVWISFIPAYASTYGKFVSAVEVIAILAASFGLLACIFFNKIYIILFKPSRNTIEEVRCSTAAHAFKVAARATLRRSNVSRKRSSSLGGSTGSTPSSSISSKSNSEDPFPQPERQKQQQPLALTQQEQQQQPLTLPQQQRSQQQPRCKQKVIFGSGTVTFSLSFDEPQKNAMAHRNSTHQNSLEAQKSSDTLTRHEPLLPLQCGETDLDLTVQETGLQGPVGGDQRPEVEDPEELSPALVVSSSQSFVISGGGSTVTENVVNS
Description: as §1, §2

Molecule: [Pb+2] [Pb^2+]
- effect on OC/Ca^++ activation of CaR2 (CaR2): reversed
- effect on OC/Ca^++ activation of CaR2 (CaR2; listed as Pb^++): blocked

Molecule: [Ca+2] [Ca^++, calcium]
- activation of CaR2 (CaR2; 10 mM Ca^++): modest activation
- activation of CaR2 (CaR2; 40 mM Ca^++): robustly activated
- pEC50 (CaR2; Ca^++ as activating ligand, clone expressing CaR2): 1.07
- calcium level causing a marked increase in fluorescence signal, hence intracellular Ca^++ (CaR2; clone expressing CaR2): > 20 mM
- FLIPR response (change of intracellular Ca^++ levels) (CaR2): failed to elicit a positive FLIPR response
- increase in fluorescence signal by high calcium levels (parental HEK293 cells; parental cell line, >20 mM calcium): not observed
- pEC50 (CaR; transfected HEK 293 cells): 2.39

Molecule: NCCCC(=O)O [GABA]
- FLIPR response (change of intracellular Ca^++ levels) (CaR2): failed to elicit a positive FLIPR response

Molecule: osteocalcin (YLYQWLGAPVPYPDPLEPRREVCELNPDCDELADHIGFQEAYRRFYGPV; ends and bridges not checked; cysteine pairing not given here; UniProt P02818 52-100, looked up)
- OC activation of CaR2 (CaR2; OC pre-incubated with 10 mM Ca^++): activates CaR2 when pre-incubated with 10 mM Ca^++ in a dose-dependent manner
- effect of OC on CaR2 activation by calcium (CaR2; in the presence of osteocalcin): activated at lower calcium levels and the activation by high mM calcium was potentiated
- synergistic effect of Ca^++ and osteocalcin on CaR2, dependence on pre-incubation (CaR2; pre-incubated versus both ligands added separately): only witnessed when calcium is pre-incubated with OC, but not when both ligands are added separately
- synergistic effect of Ca^++ and osteocalcin (parental HEK293 cells; OC and Ca^++ added to parental HEK293 cells): not observed
- synergistic effect of Ca^++ and osteocalcin (CaR; OC and Ca^++ added to HEK293 cells that express CaR): not observed

Molecule: CN[C@H](CC(=O)O)C(=O)O [NMDA]
- FLIPR response (change of intracellular Ca^++ levels) (CaR2): failed to elicit a positive FLIPR response
